In patent US11001590B2, “Pyrazolopyrimidine derivatives” (BAYER ANIMAL HEALTH GMBH, priority 2016, dated 2021):

Assays:
[1] = tested on: Dirofilaria immitis microfilariae; assay: In vitro assay 3: Dirofilaria immitis microfilariae (DIROIM L1), motility; conditions: 72 h, reduction of motility vs negative control, 72 h incubation
[2] = tested on: Dirofilaria immitis third-stage larvae; assay: In vitro assay 4: Dirofilaria immitis (DIROIM L4), motility of larvae; conditions: 72 h
[3] = log P by HPLC on reversed phase columns (Method L0; [a] acidic, [b] neutral range)
Protocol: Calibration was done with straight-chain alkan-2-ones (with 3 to 16 carbon atoms) with known log P values (measurement of log P values using retention times with linear interpolation between successive alkanones). Lambda-max-values were determined using UV-spectra from 200 nm to 400 nm and the peak values of the chromatographic signals.

C. elegans Slo-1a = C. elegans Slo-1a (Caenorhabditis elegans, UniProt Q95V25); assay: In vitro assay 1: C. elegans Slo-1a, action at a recombinant C. elegans CHO cell line (membrane potential measurement)
Chain of C. elegans Slo-1a (Q95V25 whole entry): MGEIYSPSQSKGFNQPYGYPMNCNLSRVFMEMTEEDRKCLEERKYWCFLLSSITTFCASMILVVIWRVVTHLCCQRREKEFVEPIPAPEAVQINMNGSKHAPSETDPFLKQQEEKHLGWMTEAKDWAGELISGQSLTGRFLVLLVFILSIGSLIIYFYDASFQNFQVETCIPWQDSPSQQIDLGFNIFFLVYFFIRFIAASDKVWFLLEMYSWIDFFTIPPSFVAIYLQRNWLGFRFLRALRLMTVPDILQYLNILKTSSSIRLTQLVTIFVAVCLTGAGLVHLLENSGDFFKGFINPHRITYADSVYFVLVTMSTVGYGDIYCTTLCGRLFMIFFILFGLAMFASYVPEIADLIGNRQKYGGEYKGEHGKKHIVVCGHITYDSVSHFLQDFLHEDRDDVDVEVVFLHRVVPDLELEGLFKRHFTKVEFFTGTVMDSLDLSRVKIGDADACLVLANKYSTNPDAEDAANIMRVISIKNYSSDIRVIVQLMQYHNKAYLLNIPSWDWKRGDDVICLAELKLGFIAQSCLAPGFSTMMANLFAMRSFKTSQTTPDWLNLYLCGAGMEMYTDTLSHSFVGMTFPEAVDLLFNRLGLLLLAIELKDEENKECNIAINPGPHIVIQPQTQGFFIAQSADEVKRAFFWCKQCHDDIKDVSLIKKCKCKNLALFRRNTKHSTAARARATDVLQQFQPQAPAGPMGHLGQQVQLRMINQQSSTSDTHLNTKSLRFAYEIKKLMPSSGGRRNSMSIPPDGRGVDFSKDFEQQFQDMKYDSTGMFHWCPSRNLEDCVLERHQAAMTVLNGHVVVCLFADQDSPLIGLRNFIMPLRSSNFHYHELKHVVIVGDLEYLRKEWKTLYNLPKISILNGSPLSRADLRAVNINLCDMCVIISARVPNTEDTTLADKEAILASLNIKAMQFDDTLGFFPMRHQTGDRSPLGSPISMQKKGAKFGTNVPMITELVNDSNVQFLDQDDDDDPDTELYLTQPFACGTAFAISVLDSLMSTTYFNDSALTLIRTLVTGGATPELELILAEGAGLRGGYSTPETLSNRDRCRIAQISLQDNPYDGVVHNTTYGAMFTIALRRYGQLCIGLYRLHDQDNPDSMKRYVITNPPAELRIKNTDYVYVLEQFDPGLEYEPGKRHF

[4] = tested on: Litomosoides sigmodontis third-stage larvae; assay: In vitro assay 7: Litomosoides sigmodontis L3 (LTMOSI), motility; conditions: 72 h, reduction of motility vs negative control, 72 h incubation

Row | SMILES | EC50 [1] [µg/mL] | EC50 [2] [µg/mL] | chromatographic logP [3] | EC50 (C. elegans Slo-1a) [nM] | EC50 [4] [µg/mL]
1 | Cc1nn2c(C(C)C)c(C(=O)N[C@H]3CCc4ccccc43)cnc2c1-c1cccc(C(F)(F)F)c1 [Example 4] | < 1 | < 1 | 5.3 | 31.6 | –
2 | Cc1nn2c(C(C)C)c(C(=O)N[C@H]3CCCc4ccccc43)cnc2c1-c1cccc(Cl)c1 [Example 45] | < 0.1 | < 1 | 5.51 | 50.1 | < 0.1
3 | CC(C)c1c(C(=O)N[C@H]2CCc3ccccc32)cnc2c(-c3ccccc3Cl)c(Cl)nn12 [Example 79] | < 0.1 | < 0.1 | 4.79 | 20 | < 0.1
4 | Cc1nn2c(C(C)C)c(C(=O)N[C@H]3CCOc4ccccc43)cnc2c1-c1ccccc1F [Example 92] | < 0.1 | < 0.1 | 4.18 | 6.31 | < 0.1
5 | Cc1nn2c(C(C)C)c(C(=O)N[C@H]3CCc4ccccc43)cnc2c1-c1ccccc1F [Example 95] | < 0.1 | < 0.1 | 4.41 | 6.31 | < 0.1
6 | Cc1nn2c(C(C)C)c(C(=O)N[C@H]3CCCc4ccccc43)cnc2c1-c1c(F)cccc1F [Example 98] | < 0.1 | < 0.1 | 4.67 | 12.6 | < 0.1
7 | Cc1nn2c(C(C)C)c(C(=O)N[C@H]3CCc4ccccc43)cnc2c1-c1c(F)cccc1F [Example 99] | < 0.1 | < 0.1 | 4.37 | 10 | < 0.1
8 | Cc1nn2c(C(C)C)c(C(=O)N[C@H]3CCOc4ccccc43)cnc2c1-c1ccc(F)c(F)c1 [Example 100] | < 0.1 | < 0.1 | 4.56 | 7.94 | < 0.1
9 | Cc1nn2c(C(C)C)c(C(=O)N[C@H]3CCc4ccccc43)cnc2c1-c1ccc(F)c(F)c1 [Example 103] | < 0.1 | < 0.1 | 4.82 | 20 | < 0.1
10 | Cc1nn2c(C(C)C)c(C(=O)N[C@H]3CCOc4ccccc43)cnc2c1-c1ccccc1Cl [Example 107] | < 0.1 | < 0.1 | 4.37 | 5.01 | < 0.1
11 | Cc1nn2c(C(C)C)c(C(=O)N[C@H]3CCc4ccccc43)cnc2c1-c1cc(F)ccc1F [Example 116] | < 0.1 | < 0.1 | 4.59 | 10 | < 0.1
12 | Cc1nn2c(C(C)C)c(C(=O)N[C@H]3CCOc4ccccc43)cnc2c1-c1cccc(Cl)c1 [Example 117] | < 0.1 | < 0.1 | 4.87 | 5.01 | < 0.1
13 | Cc1nn2c(C(C)C)c(C(=O)N[C@H]3CCOc4ccccc43)cnc2c1-c1cc(F)ccc1F [Example 121] | < 0.1 | < 0.1 | 4.41 | 6.31 | < 0.1
14 | Cc1nn2c(C(C)C)c(C(=O)N[C@H]3CCCc4ccccc43)cnc2c1-c1c(F)cccc1Cl [Example 131] | < 0.1 | < 0.1 | 5.02 | 7.94 | < 0.1
15 | Cc1nn2c(C(C)C)c(C(=O)N[C@H]3CCc4ccccc43)cnc2c1-c1c(F)cccc1Cl [Example 132] | < 0.1 | < 0.1 | 4.71 | 6.31 | < 0.1
16 | Cc1nn2c(C(C)C)c(C(=O)N[C@H]3CCCc4ccccc43)cnc2c1-c1cccc(F)c1F [Example 134] | < 0.1 | < 0.1 | 4.9 | 12.6 | < 0.1
17 | Cc1nn2c(C(C)C)c(C(=O)N[C@H]3CCc4ccccc43)cnc2c1-c1cccc2c1OC(F)(F)O2 [Example 147] | < 0.1 | < 0.1 | 5.17 | 50.1 | < 0.1
18 | Cc1nn2c(C(C)C)c(C(=O)N[C@H]3CCOc4ccccc43)cnc2c1-c1cccc(C(F)F)c1 [Example 153] | < 0.1 | < 0.1 | 4.41 | 126 | < 0.1
19 | Cc1nn2c(C(C)C)c(C(=O)N[C@H]3CCOc4ccccc43)cnc2c1-c1c(Cl)cccc1Cl [Example 154] | < 0.1 | < 0.1 | 4.56 | 6.31 | < 0.1
20 | Cc1nn2c(C(C)C)c(C(=O)N[C@H]3CCc4ccccc43)cnc2c1-c1cccc(F)c1Cl [Example 165] | < 0.1 | < 0.1 | 4.74 | 2 | –
21 | Cc1nn2c(C(C)C)c(C(=O)N[C@H]3CCc4ccccc43)cnc2c1-c1cccc(Cl)c1Cl [Example 168] | < 0.1 | < 0.1 | 5.13 | 3.16 | < 0.1

Row | SMILES | EC50 [1] [µg/mL] | EC50 [2] [µg/mL] | chromatographic logP [3] | EC50 (C. elegans Slo-1a) [nM] | EC50 [4] [µg/mL]
22 | Cc1nn2c(C(C)C)c(C(=O)N[C@H]3CCCc4ccccc43)cnc2c1-c1cccc(Cl)c1Cl [Example 169] | < 0.1 | < 0.1 | 5.46 | 6.31 | < 0.1
23 | Cc1nn2c(C(C)C)c(C(=O)N[C@H]3CCc4ccccc43)cnc2c1-c1cc(Cl)ccc1Cl [Example 171] | < 0.1 | < 0.1 | 5.31 | 5.01 | < 0.1
24 | Cc1nn2c(C(C)C)c(C(=O)N[C@H]3CCCc4ccccc43)cnc2c1-c1cc(Cl)ccc1Cl [Example 172] | < 0.1 | < 0.1 | 5.64 | 10 | –
25 | Cc1nn2c(C(C)C)c(C(=O)N[C@H]3CCOc4ccccc43)cnc2c1-c1cc(Cl)ccc1Cl [Example 173] | < 0.1 | < 0.1 | 5 | 3.98 | < 0.1
26 | Cc1nn2c(C(C)C)c(C(=O)N[C@H]3CCOc4ccccc43)cnc2c1-c1cccc(F)c1Cl [Example 191] | < 0.1 | < 0.1 | 4.46 | 1.26 | < 0.1
27 | Cc1nn2c(C(C)C)c(C(=O)N[C@H]3CCc4ccccc43)cnc2c1-c1cccc(Cl)c1 [Example 287] | < 1 | – | 5.19 | 15.8 | < 0.1
28 | COc1cccc(-c2c(C)nn3c(C(C)C)c(C(=O)N[C@H]4CCc5ccccc54)cnc23)c1 [Example 289] | < 1 | – | 4.51 | 15.8 | < 0.1
29 | Cc1nn2c(C(C)C)c(C(=O)N[C@H]3CCc4ccccc43)cnc2c1-c1cccc(F)c1 [Example 290, (S)—N-(2,3-Dihydro-1H-inden-1-yl)-3-(3-fluorophenyl)-7-isopropyl-2-methylpyrazolo[1,5-a]pyrimidine-6-carboxamide] | < 1 | – | 4.73 | 15.8 | < 1
30 | COCc1cccc(-c2c(C)nn3c(C(C)C)c(C(=O)N[C@H]4CCCc5ccccc54)cnc23)c1 [Example 344] | < 1 | < 1 | 4.74 | 7.94 | –
31 | Cc1nn2c(C3CC3)c(C(=O)N[C@H]3CCc4ccccc43)cnc2c1-c1cccc(N(C)C)c1 [Example 348] | < 1 | < 1 | 2.98 | 3.98 | –
32 | COCc1cccc(-c2c(C)nn3c(C4CC4)c(C(=O)N[C@H]4CCc5ccccc54)cnc23)c1 [Example 350] | < 0.1 | < 1 | 3.65 | 10 | –
33 | Cc1nn2c(C3CC3)c(C(=O)N[C@H]3CCc4ccccc43)cnc2c1-c1ccc(F)c(F)c1 [Example 358] | < 1 | < 1 | 4.1 | 12.6 | –
34 | Cc1nn2c(C(C)C)c(C(=O)N[C@H]3CCc4ccccc43)cnc2c1-c1cccc(N2CC(F)(F)C2)c1 [Example 364] | < 1 | < 1 | 4.89 | 10 | –
35 | CC(C)c1c(C(=O)N[C@H]2CCc3ccccc32)cnc2c(-c3c(F)cccc3F)c(C(F)F)nn12 [Example 434] | < 0.1 | < 0.1 | 4.23 | 7.94 | –
36 | Cc1nn2c(C3CC3)c(C(=O)N[C@H]3CCOc4ccccc43)cnc2c1-c1c(F)cccc1F [Example 445] | < 0.1 | < 0.1 | 3.43 | 2 | –
37 | Cc1nn2c(C3CC3)c(C(=O)N[C@H]3CCOc4ccccc43)cnc2c1-c1cc(F)ccc1F [Example 448] | < 0.1 | < 0.1 | 3.61 | 3.16 | –
38 | Cc1nn2c(C3CC3)c(C(=O)N[C@H]3CCOc4ccccc43)cnc2c1-c1ccccc1F [Example 450] | < 0.1 | < 0.1 | 3.45 | 3.16 | –
39 | Cc1nn2c(C3CC3)c(C(=O)N[C@H]3CCOc4ccccc43)cnc2c1-c1ccc(F)cc1 [Example 463] | < 0.1 | < 0.1 | 3.62 | 7.94 | –
40 | Cc1nn2c(N3CCOCC3)c(C(=O)N[C@H]3CCOc4ccccc43)cnc2c1-c1cccc(Cl)c1F [Example 524] | < 0.1 | < 0.1 | 4.69 | 1.26 | –
41 | Cc1nn2c(C3CC3)c(C(=O)N[C@H]3CCOc4ccccc43)cnc2c1-c1cc(F)cc(F)c1 [Example 537] | < 0.1 | – | 3.99 | 5.01 | –
